This is an account of results in US20170081338A1, “SUBSTITUTED HETEROARYL COMPOUNDS AND METHODS OF USE” (Sunshine Lake Pharma Co., Ltd., priority 2015, published 2017).

By pIC50 is commonly meant the IC50 on a negative log10 scale, so that one unit is a factor of ten. Usually AUC(0-t) stands for exposure summed from dosing to a finite time, without extrapolation to infinity. Low readings indicate less exposure, high ones more exposure. The CLint scaled is the rate of metabolic loss divided by the concentration.

pIC50: −log10 of the molar value.

One data set addresses T1, Aurora-A (h) (Homo sapiens, UniProt O14965).
T1 construct: purchased Millipore UK Ltd (contract assay service)
T1 sequence (O14965 1-403): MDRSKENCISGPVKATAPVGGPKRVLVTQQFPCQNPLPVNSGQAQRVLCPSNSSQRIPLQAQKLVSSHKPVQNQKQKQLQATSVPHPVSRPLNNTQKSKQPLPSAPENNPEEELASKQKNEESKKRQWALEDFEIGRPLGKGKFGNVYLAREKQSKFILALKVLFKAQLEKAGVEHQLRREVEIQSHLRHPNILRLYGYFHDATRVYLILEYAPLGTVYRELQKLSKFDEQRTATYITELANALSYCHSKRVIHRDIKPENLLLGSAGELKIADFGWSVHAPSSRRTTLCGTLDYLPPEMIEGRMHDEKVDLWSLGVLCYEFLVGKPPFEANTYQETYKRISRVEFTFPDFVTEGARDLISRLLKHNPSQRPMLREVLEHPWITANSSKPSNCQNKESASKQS
The data set is described as follows: Aurora-A (h) kinase assay. It counts as biochemical. The protocol: The above assay procedure can be used to determine the IC50 for inhibition and/or the inhibition constant, Ki. The IC50 is defined as the concentration of compound required to reduce the enzyme activity by 50% under the condition of the assay. The IC50 value is estimated by preparing a 10 point curve using a 1/2 log dilution series (for example, a typical curve may be prepared using the following compound concentrations: 3 μM, 1 μM, 0.3 μM, 0.1 μM, 0.03 μM, 0.01 μM, 0.003 μM, 0.001 μM, 0.0003 μM and 0 μM).
Aurora-A (h) is incubated with 8 mM MOPS pH 7.0, 0.2 mM EDTA, 200 μM LRRASLG (Kemptide), 10 mM MgAcetate and [γ-^33P-ATP] (specific activity approx. 500 cpm/pmol, concentration as required). The reaction is initiated by the addition of the MgATP mix. After incubation for 40 minutes at room temperature, the reaction is stopped by the addition of 3% phosphoric acid solution. 10 μL of the reaction is then spotted onto a P30 filtermat and washed three times for 5 minutes in 75 mM phosphoric acid and once in methanol prior to drying and scintillation counting.
The kinase assays described herein were performed at Millipore UK Ltd, Dundee Technology Park, Dundee DD2 1SW, UK.

The nature of data set [1]: Pharmacokinetics after intravenous and oral administration in rats. It is filed as in vivo. As to conditions: for Clearance (CL) after iv dosing / AUC(0-t) / half-life / Vd: dose 1 mg/kg, iv dosing; for F: oral bioavailability; for AUC(0-t) / half-life / Vd: rat, plasma; for Vd: read-out: Vss. The protocol:
The LC/MS/MS system used in the analysis consists of an Agilent 1200 Series vacuum degasser, binary pump, well-plate autosampler, thermostatted column compartment, the Agilent G6430 Triple Quadrupole Mass Spectrometer with an electrosprayionization (ESI) source. Quantitative analysis was carried out using MRM mode. The parameters for MRM transitions are in the Table A.
An Agilent XDB-C18, 2.1×30 mm, 3.5 μM column was used for the analysis. 5 μL of the samples were injected. Analysis condition: The mobile phase was 0.1% formic acid in water (A) and 0.1% formic acid in methanol (B). The flow rate was 0.4 mL/min. And the gradient of Mobile phase was in the Table B.
Alternatively, an Agilent 6330 series LC/MS/MS spectrometer equipped with G1312A binary pumps, a G1367A autosampler and a G1314C UV detector were used in the analysis. An ESI source was used on the LC/MS/MS spectrometer. The analysis was done in positive ion mode as appropriate and the MRM transition for each analyte was optimized using standard solution. A Capcell MP-C18 100×4.6 mm I.D., […] column (Phenomenex, Torrance, Calif., USA) was used during the analysis. The mobile phase was 5 mM ammonia acetate, 0.1% MeOH in water (A): 5 mM ammonia acetate, 0.1% MeOH in acetonitrile (B) (70/30, v/v). The flow rate was 0.6 mL/min. Column was maintained at ambient temperature. 20 μL of the samples were injected.
The compounds disclosed herein are assessed in pharmacokinetic studies in mice, rats, dogs or monkeys. The compounds are administered as a water solution, 2% HPMC+1% TWEEN®80 in water solution, 5% DMSO+5% solutol in saline, 4% MC suspension or capsule. For the intravenous administration, the animals are generally given at 0.5, 1 or 2 mg/kg dose. For the oral (p.o.) dosing, mice and rats are generally given 0.5, 1, 5 or 10 mg/kg dose, and dogs and monkeys are generally given 10 mg/kg dose. The blood samples (0.3 mL) are drawn at 0.25, 0.5, 1.0, 2.0, 3.0, 4.0, 6.0, 8.0, 12 and 24 h time points or 0.083, 0.25, 0.5, 1.0, 2.0, 4.0, 6.0, 8.0 and 24 h time points and centrifuged at 3,000 or 4000 rpm for 2 to 10 min. The plasma solutions are collected, and stored at −20° C. or −70° C. until analyzed by LC/MS/MS as described above.

A short description of data set [2]: Compound stability in human liver microsomes. It is filed as in vitro ADME. The following applies: pH 7.4; for half-life at 5 μM: human liver microsomes 0.5 mg protein/mL, compound 5 μM, NADPH, 37° C., read-out: Human T1/2; for CLint scaled at 5 μM: human liver microsomes, in vivo CLint extrapolated. The protocol: (§1) Human or rat liver microsomes incubations were conducted in duplicate in polypropylene tubes. The typical incubation mixtures consisted of human or rat liver microsomes (0.5 mg protein/mL), compounds of interest (5 μM) and NADPH (1.0 mM) in a total volume of 200 μL potassium phosphate buffer (PBS, 100 mM, pH 7.4). Compounds were dissolved in DMSO and diluted with PBS such that the final concentration of DMSO was 0.05%. The enzymatic reactions were commenced with the addition of protein after a 3-min preincubation and incubated in a water bath open to the air at 37° C. Reactions were terminated at various time points (0, 5, 10, 15, 30, 60 min) by adding equal volume of ice-cold acetonitrile. The samples were stored at −80° C. until LC/MS/MS assays.
(§2) The concentrations of compounds in the incubation mixtures of human or rat liver microsomes were determined by a LC/MS/MS method. The ranges of the linearity in the concentration range were determined for each tested compounds.
(§3) A parallel incubation was performed using denatured microsomes as the negative control, and reactions were terminated at various time points (0, 15, 60 min) after incubation at 37° C.
(§4) Dextromethorphan (70 μM) was selected as the positive control, and reactions were terminated at various time points (0, 5, 10, 15, 30, 60 min) after incubation at 37° C. Both positive and negative control samples were included in each assay to ensure the integrity of the microsomal incubation system.
(§5) The concentrations of compounds in human or rat liver microsome incubations were plotted as a percentage of the relevant zero time point control for each reaction. The in vivo CLint were extrapolated (ref.: Naritomi, Y.; Terashita, S.; Kimura, S.; Suzuki, A.; Kagayama, A.; and Sugiyama, Y.; Prediction of human hepatic clearance from in vivo animal experiments and in vitro metabolic studies with liver microsomes from animals and humans. Drug Metab. Dispos., 2001, 29: 1316-1324).

A short description of data set [3]: Compound stability in rat liver microsomes. The following applies: pH 7.4; for half-life at 5 μM: rat liver microsomes 0.5 mg protein/mL, compound 5 μM, NADPH, 37° C., read-out: Rat T1/2; for CLint scaled at 5 μM: rat liver microsomes, in vivo CLint extrapolated. It counts as in vitro ADME. Here is the method:
as §1, §2, §3, §4, §5

On Aurora-A (h), `Cn1cc(Nc2ncc(Cl)c(N[C@H]3COC4C3OC[C@H]4NS(=O)(=O)CC(C)(C)C)n2)cn1` (stereo partly drawn) [Ex. 7, N-((3R,6S)-6-((5-chloro-2-((1-methyl-1H-pyrazol-4-yl)amino)pyrimidin-4-yl)amino)hexahydrofuro[3,2-b]furan-3-yl)-2,2-dimethylpropane-1-sulfonamide] had a pIC50 of 5.93.
On the same count and under the same terms, then `CC(C)CS(=O)(=O)N[C@H]1COC2C1OC[C@@H]2Nc1nc(Nc2cnn(C)c2)ncc1Cl` (stereo partly drawn) [Ex. 28, N-((3S,6S)-6-((5-chloro-2-((1-methyl-1H-pyrazol-4-yl)amino)pyrimidin-4-yl)amino)hexahydrofuro[3,2-b]furan-3-yl)-2-methylpropane-1-sulfonamide], with 6.24.
For the compound `CC(CF)CS(=O)(=O)N[C@H]1COC2C1OC[C@H]2Nc1nc(Nc2cnn(C)c2)ncc1Cl` (stereo partly drawn) [Ex. 37, N-((3S,6R)-6-((5-chloro-2-((1-methyl-1H-pyrazol-4-yl)amino)pyrimidin-4-yl)amino)hexahydrofuro[3,2-b]furan-3-yl)-3-fluoro-2-methylpropane-1-sulfonamide], in data set [1], the “Clearance (CL) after iv dosing” value turned out to be 34.2 mL/min/kg, the F amounted to 69.5%, the AUC(0-t) came to 491 ng·h/mL and the half-life was 32.4 min. In addition, the Vd in data set [1] was determined as 0.86 L/kg. In addition, in data set [2], the half-life at 5 μM was determined as 26.6 min and the CLint scaled at 5 μM was 65.5 mL/min/kg. Besides, in data set [3], the half-life at 5 μM came to 34.9 min and the CLint scaled at 5 μM was 71.1 mL/min/kg.
Regarding `Cn1cc(Nc2ncc(Cl)c(N[C@@H]3COC4C3OC[C@@H]4NS(=O)(=O)CC(C)(F)F)n2)cn1` (stereo partly drawn) [Ex. 38, N-((3S,6R)-6-((5-chloro-2-((1-methyl-1H-pyrazol-4-yl)amino)pyrimidin-4-yl)amino)hexahydrofuro[3,2-b]furan-3-yl)-2,2-difluoropropane-1-sulfonamide], in data set [1], the “Clearance (CL) after iv dosing” value is 17 mL/min/kg, the F is 106.6%, the AUC(0-t) is 982 ng·h/mL and the half-life was 32.4 min. The Vd in data set [1] is 0.69 L/kg. For the same compound, in data set [2], the half-life at 5 μM was found to be 65.6 min and the intrinsic metabolic clearance (CLint scaled) at 5 μM was 26.5 mL/min/kg. Also, in data set [3], the half-life at 5 μM came out at 47.7 min and the CLint scaled at 5 μM is 52.1 mL/min/kg.
`CC(CS(=O)(=O)N[C@H]1COC2C1OC[C@H]2Nc1nc(Nc2cnn(C)c2)ncc1Cl)C(F)(F)F` (stereo partly drawn) [Ex. 40, N-((3S,6R)-6-((5-chloro-2-((1-methyl-1H-pyrazol-4-yl)amino)pyrimidin-4-yl)amino)hexahydrofuro[3,2-b]furan-3-yl)-3,33-trifluoro-2-methylpropane-1-sulfonamide]: in data set [1], the “Clearance (CL) after iv dosing” value turned out to be 30.3 mL/min/kg, the F turned out to be 77.3%, the AUC(0-t) turned out to be 533 ng·h/mL and the half-life is 31.2 min. For the same compound, the Vd in data set [1] stood at 1.22 L/kg. Besides, in data set [2], the half-life at 5 μM was determined as 25.2 min and the CLint scaled at 5 μM was 69 mL/min/kg. In data set [3], the half-life at 5 μM amounted to 19.7 min and the CLint scaled at 5 μM was 126 mL/min/kg.
In the case of `Cn1cc(Nc2ncc(Cl)c(N[C@@H]3COC4C3OC[C@@H]4NS(=O)(=O)CC(C)(C)O)n2)cn1` (stereo partly drawn) [Ex. 41, N-((3S,6R)-6-((5-chloro-2-((1-methyl-1H-pyrazol-4-yl)amino)pyrimidin-4-yl)amino)hexahydrofuro[3,2-b]furan-3-yl)-2-hydroxy-2-methylpropane-1-sulfonamide], in data set [1], the “Clearance (CL) after iv dosing” value is 57.3 mL/min/kg, the F came out at 37.0%, the AUC(0-t) was 290 ng·h/mL and the half-life was 49.2 min. For the same compound, in data set [1], the Vd came to 1.64 L/kg. Further, in data set [2], the half-life at 5 μM was found to be 102 min and the CLint scaled at 5 μM is 17 mL/min/kg. Besides, in data set [3], the half-life at 5 μM is 78.7 min and the CLint scaled at 5 μM was 31.5 mL/min/kg.
For the compound `CC(CS(=O)(=O)N[C@H]1COC2C1OC[C@H]2Nc1nc(Nc2cnn(C)c2)ncc1Cl)C(F)F` (stereo partly drawn) [Ex. 42, N-((3S,6R)-6-((5-chloro-2-((1-methyl-1H-pyrazol-4-yl)amino)pyrimidin-4-yl)amino)hexahydrofuro[3,2-b]furan-3-yl)-3,3-difluoro-2-methylpropane-1-sulfonamide], in data set [1], the “Clearance (CL) after iv dosing” value was 32.5 mL/min/kg, the F is listed as 33.1%, the AUC(0-t) is 517 ng·h/mL and the half-life was 46.2 min. For the same compound, the Vd in data set [1] worked out at 1.37 L/kg. Besides, in data set [2], the half-life at 5 μM is 29.3 min and the CLint scaled at 5 μM was 59.3 mL/min/kg. In addition, in data set [3], the half-life at 5 μM came out at 29.6 min and the CLint scaled at 5 μM was 83.9 mL/min/kg.
In the case of `CC(C)=CS(=O)(=O)N[C@H]1COC2C1OC[C@H]2Nc1nc(Nc2cnn(C)c2)ncc1Cl` (stereo partly drawn) [Ex. 43, N-((3S,6R)-6-((5-chloro-2-((1-methyl-1H-pyrazol-4-yl)amino)pyrimidin-4-yl)amino)hexahydrofuro[3,2-b]furan-3-yl)-2-methylprop-1-ene-1-sulfonamide], in data set [1], the “Clearance (CL) after iv dosing” value came to 35 mL/min/kg, the F was determined as 57.1%, the AUC(0-t) is 479 ng·h/mL and the half-life was 47.4 min. Moreover, the Vd in data set [1] came out at 1.75 L/kg. Further, in data set [2], the half-life at 5 μM was 22.9 min and the CLint scaled at 5 μM is 76 mL/min/kg. In data set [3], the half-life at 5 μM was determined as 25.7 min and the CLint scaled at 5 μM is 96.5 mL/min/kg.
